The subject of data set [1] is msfGFP reporter gene under control of BCD10. It counts as cell-based, P. putida KT2440. The settings on record: 5 mM 3-FBz (inducible systems), 30 mM glucose, FIG. 6.
For data set [2], the system named is P. putida KT2440. The data set can be described thus: Shaken flask fermentation with 10 mM 2-FBz or 3-FBz. In kind it is cell-based, Pseudomonas putida.
The subject of data set [3] is P. knackmussii. Described as above. It counts as cell-based, Pseudomonas knackmussii. Further details: rate qp: unit not given here. The note with it: for product formation rate qp: from 2-FBz; for rate qp: from 3-FBz.
The test system of data set [4] is CatR/Pcat. In kind it is cell-based, P. putida KT2440. The note with it: 1.0 mM.
Data set [5] has as its system P. putida KT2440. The settings on record: 30 mM glucose; for Maximum growth rate μmax: Example 6 (improved method).
Data set [6] has as its system Pmuc10. The data set is described as follows: Microtiter plate cultivation: growth with metabolites of the bioconversion. The settings on record: Example 6 (improved method), 30 mM glucose.

Where two headings read alike, the source gives them in different places.

“P14g: constitutive promoter, SEQ ID NO: 50 (DNA GCCCATTGACAAGGCTCTCGCGGCCAGGTATAATTGCACGA; expressed or natural sequence) [Strain P14g, reference compound]”: in data set [1], the “transcription initiation rate: quotient of OD630 nm-normalized fluorescence with the one of Ptac” value worked out at 2.51.
In the case of `O=C(O)/C=C\C=C(\F)C(=O)O` [Strain 2-FMA, 2-fluoro-cis,cis-muconate], the “combined product formation rate qp” value in data set [2] (10 mM 3-FBz) came out at 0.06 mmol gCDW^−1 h^−1. The “product formation rate qp” value in data set [2] (from 10 mM 2-FBz) came out at 0.06 mmol gCDW^−1 h^−1; in data set [3] (Example 1), 0.05 mmol gCDW^−1 h^−1; in data set [3] (Example 6) it was 0.03 mmol gCDW^−1 h^−1. The rate qp is reported as 0.05 in data set [3] (Example 1) and 0.09 in data set [3] (Example 6). The “response to 1.0 mM as compared to 1.0 mM ccMA” value in data set [4] stood at 6.7 fold. The “reduction of growth rate and maximum biomass concentration” value in data set [5] (15 mM, FIG. 14) was 50%. Moreover, in data set [5] (FIG. 14), the “concentration up to which the growth profile was similar to cultures with glucose only” value is on record as “up to 10 mM”. Moreover, the “Maximum growth rate μmax” value in data set [5] (1.0 mM additive) is 0.86 h⁻¹; in data set [5] (2.0 mM additive), 1.00 h⁻¹; in data set [5] (5.0 mM additive), 0.86 h⁻¹; in data set [5] (10 mM additive) it was 0.80 h⁻¹; in data set [5] (15 mM additive) it was 0.66 h⁻¹; in data set [5] (20 mM additive), “no growth”. In addition, the “Maximum growth rate μmax” value in data set [6] (1 mM additive) is 1.24 h⁻¹; in data set [6] (2.0 mM additive) it was 1.20 h⁻¹; in data set [6] (5 mM additive), 1.08 h⁻¹; in data set [6] (10 mM additive) it was 0.98 h⁻¹; in data set [6] (15 mM additive), 0.47 h⁻¹; in data set [6] (20 mM additive) it was “no growth”.

B1: PEM7: constitutive promoter, SEQ ID NO: 59 (nucleic acid)
DNA: TTGTTGACAATTAATCATCGGCATAGTATATCGGCATAGTATAATACGACAAGGTGAGGAACTAAACC
modifications: expressed or natural sequence
As to B1, the “transcription initiation rate: quotient of OD630 nm-normalized fluorescence with the one of Ptac” value in data set [1] was determined as 0.57.

The values above are taken from patent US20230323410A1, “BACTERIAL CELLS AND METHODS FOR PRODUCTION OF 2-FLUORO-CIS,CIS-MUCONATE” (priority 2020, published 2023).
